Patent US20130115628A1, “METHOD FOR SELECTION OF CHEMOTHERAPEUTIC AGENTS FOR ADENOCARCINOMA CANCER” (VENTANA MEDICAL SYSTEMS, INC., priority 2011, published 2013)

Columns and labels:
[1] = test system: pancreatic adenocarcinoma; assay: Retrospective study of tumor hENT1 expression (IHC, SP120) and overall survival in RTOG 9704 patients given adjuvant gemcitabine or 5FU; type: in vivo, human; set-up: Median OS in Gem hENT1-Low Patients / Median OS in Gem hENT1-High Patients: unit not given here; details: for median OS as hENT1 expression increases from No to Low to High: Method Five (percent negative staining), FIG. 18; for median OS as hENT1 expression increases from Negative to Weak to Moderate to Strong: Method Four (staining intensity), FIG. 30; for median OS as hENT1 expression (H-score subgroup) increases: Method One (H-score), FIG. 22; for OS across High, Mid and No hENT1 subgroups: Method Six with No hENT1 category (membranes resolvable at 10×), FIGS. 33-34; for OS of Low hENT1 subgroup compared to High hENT1 subgroup: Method Six; for median OS as hENT1 expression increases from Negative to Segmental to Diffuse: Method Three (staining pattern), FIG. 26; for OS of subgroup N, 20× or 40× compared to subgroup PP at 2×, 4× or 10×: Method Two (magnification), FIGS. 15-16; for HR (CI) for hENT1-Low vs -High in Gem Patients / HR for Gem vs 5-FU in hENT1-High Patients / HR for Gem vs 5-FU in hENT1-Low Patients: overall survival
Text: Method One for determining a hENT1 endpoint is an H-score. The H-score is a continuous variable that takes into account both the percentage of cells that are positive for the antigen in question, as well as the intensity of staining with the relevant antibody (McCarty et al. (1986) Cancer Research (Supp) 46, 4244s-4248s). A scoring algorithm was used to capture the hENT1 expression results. […]
Method Four for determining a hENT1 endpoint is based on highest percentage of hENT1 membrane staining intensity. The staining intensity for a tissue core is determined using the parameters described for the H-score (0, 1+, 2+, 3+). The percentage of each parameter represented by the tumor is determined. If a score of only 0 is obtained, the endpoint is considered Negative (N). For all other samples (e.g. those that contain scores with 0, 1+, 2+, and/or 3+), the endpoint is determined by the non-0 membrane intensity represented in the highest percentage (see FIG. 1). For example, if the sample is 50% 0, 20% 1+, 30% 2+ and 0% 3+, such sample would be referred to as 2+. If 2 intensities have the same percentage then the lower of the 2 intensities is used. A staining intensity score of 0 is referred to as Negative (N), a staining intensity score of 1+ is referred to as Weak (W), a staining intensity score of 2+ is referred to as Moderate (M), and a staining intensity score of 3+ is referred to as Strong (S). If there are multiple evaluations made on a patient, the maximum result (i.e., S>M>W) from the evaluations is used. There may be circumstances where if multiple evaluations are made on a patient, the minimum result from the evaluations is used. […]

pancreatic cancer = details: Stage III/IV disease, gemcitabine monotherapy; cited from earlier work
[2] = 50% tumor staining, Low group: >50% of tumor is negative
[3] = Magnification (intensity), Low group: unequivocal membranes visible only at 20x, 40x or negative
[4] = Magnification and % tumor staining, Low group: membranes visible only at 20x, 40x or negative OR >=50% of tumor is negative
[5] = High = PP at 2×, 4× and/or 10× AND negative tumor tissue <=50%, FIGS. 7-8
[6] = High = at least 50% of tumor displays membrane staining at 10× ocular, FIGS. 4-5
[7] = staining variable H-score, Low group: H-score <50

Nc1ccn([C@@H]2O[C@H](CO)[C@@H](O)C2(F)F)c(=O)n1 [gemcitabine]
Median OS in Gem hENT1-High Patients [1, 2]: 19.6 | Median OS in Gem hENT1-Low Patients [1, 2]: 14.2 | Median OS in Gem hENT1-High Patients [1, 3]: 21.0 | Median OS in Gem hENT1-Low Patients [1, 3]: 14.8 | Median OS in Gem hENT1-High Patients [1, 4]: 24.2 | Median OS in Gem hENT1-Low Patients [1, 4]: 14.8 | median OS as hENT1 expression increases from No to Low to High [1]: increases | OS of No hENT1 subgroup compared to Low and High hENT1 subgroups ([1]; Method Five, FIG. 19): exhibited shorter OS | OS of patients with observable hENT1 expression (Low and High combined) compared to no hENT1 expression ([1]; Method Five, FIG. 20): exhibit longer OS | median OS as hENT1 expression increases from Negative to Weak to Moderate to Strong [1]: increases | OS of negative hENT1 subgroup compared to Weak, Moderate or Strong subgroups ([1]; Method Four, FIG. 31): exhibited shorter OS | median OS as hENT1 expression (H-score subgroup) increases [1]: increases | OS of subgroup H-score<=20 compared to H-score between 20 and 80 and H-score>=80 ([1]; Method One, FIG. 23): exhibited shorter OS | OS of patients with H-score>=50 compared to H-score <50 ([1]; Method One, FIG. 24): exhibited longer OS | OS across High, Mid and No hENT1 subgroups [1]: the subgroup with No hENT1 expression exhibited the shortest OS followed by the Mid hENT1 subgroup and the High hENT1 subgroup had the longest OS | OS of Low hENT1 subgroup compared to High hENT1 subgroup [1, 5]: exhibited shorter OS | OS of Low hENT1 subgroup compared to High hENT1 subgroup [1, 6]: exhibited shorter OS | median OS as hENT1 expression increases from Negative to Segmental to Diffuse [1]: increases | OS of negative hENT1 subgroup compared to Segmental or Diffuse subgroups ([1]; Method Three, FIG. 27): exhibited shorter OS | OS of patients with detectable hENT1 expression (S or D) compared to no hENT1 expression ([1]; Method Three, FIG. 28): exhibit longer OS | OS of subgroup N, 20× or 40× compared to subgroup PP at 2×, 4× or 10× [1]: exhibited shorter OS | median overall survival of hENT1-high patients compared to hENT1-low patients ([1]; for each of the hENT1 cut-offs of Table 2): longer | HR (CI) for hENT1-Low vs -High in Gem Patients [1, 2]: 0.61 | HR for Gem vs 5-FU in hENT1-High Patients [1, 2]: 0.84 | HR for Gem vs 5-FU in hENT1-Low Patients [1, 2]: 1.37 | HR (CI) for hENT1-Low vs -High in Gem Patients [1, 3]: 0.67 | HR for Gem vs 5-FU in hENT1-High Patients [1, 3]: 0.87 | HR (CI) for hENT1-Low vs -High in Gem Patients [1, 4]: 0.58 | HR for Gem vs 5-FU in hENT1-High Patients [1, 4]: 0.77 | HR (CI) for hENT1-Low vs -High in Gem Patients [1, 7]: 0.63 | HR for Gem vs 5-FU in hENT1-High Patients [1, 7]: 0.86 | HR for Gem vs 5-FU in hENT1-Low Patients [1, 7]: 1.35 | Median OS in Gem hENT1-High Patients [1, 7]: 19.6 | Median OS in Gem hENT1-Low Patients [1, 7]: 14.2 | median OS (pancreatic cancer): 5-7 months

O=c1[nH]cc(F)c(=O)[nH]1 [5FU, 5-Fluorouracil]
median OS as hENT1 expression increases from No to Low to High [1]: do not demonstrate an improvement in OS with increasing hENT1 expression | median OS as hENT1 expression increases from Negative to Weak to Moderate to Strong [1]: do not demonstrate an improvement in OS with increasing hENT1 expression | median OS as hENT1 expression (H-score subgroup) increases [1]: do not demonstrate an improvement in OS with increasing hENT1 expression | OS across High, Mid and No hENT1 subgroups [1]: do not demonstrate improvement in OS between the High, Mid and No hENT1 subgroups | OS of Low hENT1 subgroup compared to High hENT1 subgroup [1, 5]: do not demonstrate improvement in OS between the High and Low subgroups | OS of Low hENT1 subgroup compared to High hENT1 subgroup [1, 6]: do not demonstrate improvement in OS between the High and Low subgroups | median OS as hENT1 expression increases from Negative to Segmental to Diffuse [1]: do not demonstrate an improvement in OS with increasing hENT1 expression | OS of subgroup N, 20× or 40× compared to subgroup PP at 2×, 4× or 10× [1]: do not demonstrate an improvement in OS
